The values that follow come from paper PMC8185074, “Anchor extension: a structure-guided approach to design cyclic peptides targeting enzyme active sites” (Nature Communications, 2021).

SMILES strings stand for the structures. Where two headings read alike, the source gives them in different places. Peptide text beside a SMILES is read from it.

Experiment [1] has as its target T1, HDAC2 (Homo sapiens, UniProt Q92769).
T1 construct: purchased Reaction Biology Corporation (assay run by the CRO)
The experiment in a line: Initial HDAC2 IC50 estimate (BPS Biosciences HDAC fluorogenic assay kit). The experiment is classed as biochemical. The protocol:
Initial IC50 values were estimated using HDAC fluorogenic assay kits from BPS Biosciences (HDAC2, HDAC4, and HDAC6) following the protocol described in the kit. All the measures were performed in duplicates or triplicates. These measurements were done either on full range of concentrations (1:10 dilution from 1 µM to 100 pM) or on two concentrations only (20 nM and 200 nM) as an estimate of the range. […] Source Data are provided as a Source Data file.

The target in experiment [2] is T1, HDAC2. The experiment in a line: HDAC2 inhibition, full IC50 measurement (Reaction Biology; fluorogenic p53 peptide RHKK(Ac)AMC). The class given is biochemical. The protocol:
The assay was performed using 50 μM fluorogenic peptide from p53 residues 379-382 [RHKK(Ac)AMC] in a base reaction buffer of 50 mM Tris-HCl at pH 8.0, 137 mM NaCl, 2.7 mM KCl, 1 mM MgCl2, and freshly added 1 mg/ml BSA and 1% DMSO. Peptides were first dissolved in DMSO and then added to the reaction mixture with the enzyme using acoustic technique, enough to reach the desired concentration for that assay point. Peptide concentrations were calculated based on mass of lyophilized peptide and its molecular weight. The substrate was then added and incubated for 1 hour at 30 °C in a sealed container. After the incubation, developer was added to stop the reaction and develop color. Kinetic measurements were then performed for 20 min with Envision with 5 min intervals (Ex/Em = 360/460 nm). The endpoint after plateau was taken for IC50 measurement.
In cases where duplicate measures are used, average data is reported in the main text or Supplementary Tables.

Where [3] appears, read: HDAC2 activity (initial activity), Supplementary Dataset 2.
[4] abbreviates: HDAC2 activity (initial values for HDAC2 IC50), Supp. Table 4, rough estimates, for promising hits full measurements.
Setting [5] is: Supplementary Dataset 2, read-out: HDAC2 activity (initial activity).

T1 sequence (Q92769 whole entry): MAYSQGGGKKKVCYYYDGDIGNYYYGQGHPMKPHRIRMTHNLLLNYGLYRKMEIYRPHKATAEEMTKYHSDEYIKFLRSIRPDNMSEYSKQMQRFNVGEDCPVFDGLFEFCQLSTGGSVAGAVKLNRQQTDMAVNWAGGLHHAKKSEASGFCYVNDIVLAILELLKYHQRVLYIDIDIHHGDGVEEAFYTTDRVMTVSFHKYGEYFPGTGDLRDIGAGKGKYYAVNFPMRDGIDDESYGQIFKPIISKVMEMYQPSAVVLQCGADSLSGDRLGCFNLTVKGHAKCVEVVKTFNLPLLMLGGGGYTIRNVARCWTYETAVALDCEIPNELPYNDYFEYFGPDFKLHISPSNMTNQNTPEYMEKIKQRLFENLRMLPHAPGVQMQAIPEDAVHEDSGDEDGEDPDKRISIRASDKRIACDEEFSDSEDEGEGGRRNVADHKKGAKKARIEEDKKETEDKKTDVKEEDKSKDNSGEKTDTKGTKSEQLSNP

Take `C[C@H]1NC(=O)[C@H](CCCCCS)NC(=O)[C@H](CCN)NC(=O)[C@@H](CC(N)=O)NC(=O)[C@H](CO)NC(=O)[C@H](CC(=O)O)NC(=O)[C@@H](CC(=O)O)NC(=O)[C@@H]2CCCN2C(=O)[C@H](Cc2ccccc2)NC1=O` [des3.5.1, SHA-dAla-Phe-Pro-dAsp-Asp-Ser-dAsn-Dab] (HELM PEPTIDE1{D.S.[dN].[Dab].[O=C([C@H](CCCCCS)N[*:1])[*:2]].[dA].F.P.[dD]}$PEPTIDE1,PEPTIDE1,1:R1-9:R2$$$V2.0): the IC50 at HDAC2 [1] (setting [3]) was more than 1000 nM.

Consider `C[C@H]1NC(=O)[C@@H](Cc2c[nH]cn2)NC(=O)[C@H](CCCCCS)NC(=O)[C@H](Cc2c[nH]c3ccccc23)NC(=O)[C@@H](CCCNC(=N)N)NC(=O)[C@@H]2CCCN2C(=O)[C@@H](CC(N)=O)NC(=O)[C@@H](CC(N)=O)NC(=O)[C@H](Cc2ccc(O)cc2)NC1=O` [des3.6.0, SHA-dHis-dAla-Tyr-dAsn-dAsn-Pro-dArg-Trp] (HELM PEPTIDE1{P.[dR].W.[O=C([C@H](CCCCCS)N[*:1])[*:2]].[dH].[dA].Y.[dN].[dN]}$PEPTIDE1,PEPTIDE1,1:R1-9:R2$$$V2.0), for which the IC50 at HDAC2 [1] (setting [3]) is more than 1000 nM. Turning to `NCCCC[C@@H]1NC(=O)[C@@H]2CCCN2C(=O)[C@H](CC(N)=O)NC(=O)[C@H](CCCCCS)NC(=O)CNC(=O)[C@H](Cc2c[nH]c3ccccc23)NC(=O)[C@@H](CCCCN)NC(=O)[C@H](CN)NC1=O` [des1.1.3, SHA-Asn-Pro-Lys-Dap-dLys-Trp-Gly] (HELM PEPTIDE1{[NC[C@H](N[*:1])C(=O)[*:2]].[dK].W.G.[O=C([C@H](CCCCCS)N[*:1])[*:2]].N.P.K}$PEPTIDE1,PEPTIDE1,1:R1-8:R2$$$V2.0), the IC50 is 100 nM at HDAC2 [1] (setting [3]) and 10 to 100 nM on HDAC2 [1] (setting [4]).

Consider `NCCCC[C@@H]1NC(=O)[C@@H]2CCCN2C(=O)[C@H](CC(N)=O)NC(=O)[C@H](CCCCCS)NC(=O)CNC(=O)[C@H](Cc2c[nH]c3ccccc23)NC(=O)[C@@H](CCCCN)NC(=O)[C@H](CO)NC1=O` [des1.1.4, SHA-Asn-Pro-Lys-Ser-dLys-Trp-Gly] (HELM PEPTIDE1{G.[O=C([C@H](CCCCCS)N[*:1])[*:2]].N.P.K.S.[dK].W}$PEPTIDE1,PEPTIDE1,1:R1-8:R2$$$V2.0), for which the IC50 is 100 nM at HDAC2 [1] (setting [3]) and 10 to 100 nM on HDAC2 [1] (setting [4]). Regarding `C[C@@H]1NC(=O)[C@@H](CCCNC(=N)N)NC(=O)[C@H](CCCCCS)NC(=O)[C@H](CCc2ccccc2)NC(=O)[C@@H](CCCNC(=N)N)NC(=O)[C@@H](Cc2ccccc2)NC(=O)[C@@H](CCC(=O)O)NC(=O)[C@@H](CCCCN)NC(=O)[C@@H]2CCCN2C1=O` [des3.10.0, SHA-dArg-Ala-Pro-dLys-dGlu-dPhe-dArg-C27] (HELM PEPTIDE1{A.P.[dK].[dE].[dF].[dR].[O=C([C@H](CCc1ccccc1)N[*:1])[*:2]].[O=C([C@H](CCCCCS)N[*:1])[*:2]].[dR]}$PEPTIDE1,PEPTIDE1,1:R1-9:R2$$$V2.0), at HDAC2 [1] (setting [3]), the IC50 is 10 to 100 nM.

Regarding `CC(C)C[C@H]1NC(=O)[C@H](Cc2c[nH]c3ccccc23)NC(=O)[C@H](CCCCCS)NC(=O)[C@@H](Cc2ccc(O)cc2)NC(=O)[C@@H]([C@H](C)O)NC(=O)[C@H](Cc2c[nH]cn2)NC(=O)CNC(=O)[C@H]2CCCN2C(=O)[C@@H](CO)NC1=O` [des2.2.2, SHA-Trp-dLeu-dSer-dPro-Gly-His-dThr-dTyr] (HELM PEPTIDE1{G.H.[dT].[dY].[O=C([C@H](CCCCCS)N[*:1])[*:2]].W.[dL].[dS].[dP]}$PEPTIDE1,PEPTIDE1,1:R1-9:R2$$$V2.0), the IC50 on HDAC2 [1] (setting [3]) was 500 nM. As to `CC(C)C[C@@H]1NC(=O)[C@@H](CCC(=O)O)NC(=O)[C@@H](CC(N)=O)NC(=O)[C@@H](Cc2c[nH]cn2)NC(=O)[C@H](CCCCCS)NC(=O)[C@H](Cc2ccc3ccccc3c2)NC(=O)[C@H](CCCNC(=N)N)NC(=O)[C@@H]2CCCN2C(=O)[C@@H](C)NC1=O` [des3.8.0, SHA-dHis-dAsn-dGlu-Leu-dAla-Pro-Arg-B74] (HELM PEPTIDE1{[O=C([C@H](Cc1ccc2ccccc2c1)N[*:1])[*:2]].[O=C([C@H](CCCCCS)N[*:1])[*:2]].[dH].[dN].[dE].L.[dA].P.R}$PEPTIDE1,PEPTIDE1,1:R1-9:R2$$$V2.0), the IC50 at HDAC2 [1] (setting [3]) was more than 1000 nM. For `C[C@H]1NC(=O)[C@H](CCCNC(=N)N)NC(=O)[C@@H](CC(N)=O)NC(=O)[C@@H](CC(N)=O)NC(=O)[C@H](CCC(=O)O)NC(=O)[C@@H](CC(=O)O)NC(=O)[C@@H](CC(N)=O)NC(=O)[C@H](CCCCCS)NC1=O` [des1.3.0, SHA-dAsn-dAsp-Glu-dAsn-dAsn-Arg-dAla] (HELM PEPTIDE1{E.[dN].[dN].R.[dA].[O=C([C@H](CCCCCS)N[*:1])[*:2]].[dN].[dD]}$PEPTIDE1,PEPTIDE1,1:R1-8:R2$$$V2.0), at HDAC2 [1] (setting [3]), the IC50 was 1000 nM. `N=C(N)NCCC[C@@H]1NC(=O)[C@@H](CCCNC(=N)N)NC(=O)[C@H]2CCCN2C(=O)[C@@H](Cc2c[nH]cn2)NC(=O)[C@H](Cc2ccc(O)cc2)NC(=O)[C@H](CCCCCS)NC(=O)[C@H](CCc2ccccc2)NC(=O)[C@@H](CCCCN)NC(=O)[C@H](CC(=O)O)NC1=O` [des3.2.0, SHA-Tyr-dHis-dPro-dArg-Arg-Asp-dLys-C27] (HELM PEPTIDE1{D.[dK].[O=C([C@H](CCc1ccccc1)N[*:1])[*:2]].[O=C([C@H](CCCCCS)N[*:1])[*:2]].Y.[dH].[dP].[dR].R}$PEPTIDE1,PEPTIDE1,1:R1-9:R2$$$V2.0): the “2-Selectivity: fold potency for HDAC2 over HDAC6” value (“2-Selectivity: fold potency” below) on HDAC2 [2] stood at 0.53 fold. Also, the IC50 on HDAC2 [1] (Supp. Table 4, rough estimates, for promising hits full measurements, read-out: HDAC2 activity (initial values for HDAC2 IC50)) is 28 nM; at HDAC2 [1] (setting [5]), more than 10 nM.

With `N=C(N)NCCC[C@H]1NC(=O)[C@H]2CCCN2C(=O)[C@@H](Cc2c[nH]cn2)NC(=O)[C@H](Cc2ccc(O)cc2)NC(=O)[C@H](CCCCCS)NC(=O)[C@H](CCc2ccccc2)NC(=O)[C@H]2CCCN2C(=O)[C@H](CC(=O)O)NC(=O)[C@@H]2CCCN2C1=O` [des3.2.3, SHA-Tyr-dHis-dPro-dArg-Pro-Asp-dPro-C27] (HELM PEPTIDE1{D.[dP].[O=C([C@H](CCc1ccccc1)N[*:1])[*:2]].[O=C([C@H](CCCCCS)N[*:1])[*:2]].Y.[dH].[dP].[dR].P}$PEPTIDE1,PEPTIDE1,1:R1-9:R2$$$V2.0), the “2-Selectivity: fold potency” value at HDAC2 [2] worked out at 0.47 fold. Further, the IC50 at HDAC2 [1] (setting [3]) is 92 nM. In the case of `N=C(N)NCCC[C@@H]1NC(=O)[C@@H](CCCNC(=N)N)NC(=O)[C@H]2CCCN2C(=O)[C@@H](Cc2c[nH]cn2)NC(=O)[C@H](Cc2ccc(O)cc2)NC(=O)[C@H](CCCCCS)NC(=O)[C@H](CCc2ccccc2)NC(=O)[C@H]2CCCN2C(=O)[C@H](CC(=O)O)NC1=O` [des3.2.1, SHA-Tyr-dHis-dPro-dArg-Arg-Asp-dPro-C27] (HELM PEPTIDE1{D.[dP].[O=C([C@H](CCc1ccccc1)N[*:1])[*:2]].[O=C([C@H](CCCCCS)N[*:1])[*:2]].Y.[dH].[dP].[dR].R}$PEPTIDE1,PEPTIDE1,1:R1-9:R2$$$V2.0), the “2-Selectivity: fold potency” value at HDAC2 [2] stood at 0.44 fold. Besides, the IC50 at HDAC2 [1] (setting [4]) is 66 nM. As to `CCCC[C@H]1NC(=O)[C@@H](CCCCN)NC(=O)[C@H](CCCCCS)NC(=O)[C@@H](C)NC(=O)[C@H](CCCNC(=N)N)NC(=O)[C@@H]([C@H](C)O)NC(=O)[C@@H](CC(N)=O)NC(=O)[C@H](CCC(=O)O)NC1=O` [des1.2.0, SHA-dLys-dNle-Glu-dAsn-dThr-Arg-dAla] (HELM PEPTIDE1{E.[dN].[dT].R.[dA].[O=C([C@H](CCCCCS)N[*:1])[*:2]].[dK].[CCCC[C@@H](N[*:1])C(=O)[*:2]]}$PEPTIDE1,PEPTIDE1,1:R1-8:R2$$$V2.0), at HDAC2 [1] (setting [5]), the IC50 was 100000 nM. Take `CCCC[C@@H]1NC(=O)[C@H](CCCCCS)NC(=O)[C@H](CCc2ccccc2)NC(=O)[C@H](C)NC(=O)[C@@H]2CCCN2C(=O)[C@@H](CC(=O)O)NC(=O)[C@@H](CO)NC(=O)[C@H](Cc2c[nH]c3ccccc23)NC(=O)[C@@H](CO)NC1=O` [des3.7.0, SHA-Nlu-dSer-Trp-dSer-dAsp-Pro-Ala-C27] (HELM PEPTIDE1{[O=C([C@H](CCCCCS)N[*:1])[*:2]].[Nle].[dS].W.[dS].[dD].P.A.[O=C([C@H](CCc1ccccc1)N[*:1])[*:2]]}$PEPTIDE1,PEPTIDE1,1:R1-9:R2$$$V2.0): the IC50 at HDAC2 [1] (setting [5]) was more than 1000 nM.

In the case of `N=C(N)NCCC[C@H]1NC(=O)[C@H]2CCCN2C(=O)[C@@H](Cc2c[nH]cn2)NC(=O)[C@H](Cc2ccc(O)cc2)NC(=O)[C@H](CCCCCS)NC(=O)[C@H](CCc2ccccc2)NC(=O)[C@@H](CCCCN)NC(=O)[C@H](CC(=O)O)NC(=O)[C@@H]2CCCN2C1=O` [des3.2.2, SHA-Tyr-dHis-dPro-dArg-Pro-Asp-dLys-C27] (HELM PEPTIDE1{D.[dK].[O=C([C@H](CCc1ccccc1)N[*:1])[*:2]].[O=C([C@H](CCCCCS)N[*:1])[*:2]].Y.[dH].[dP].[dR].P}$PEPTIDE1,PEPTIDE1,1:R1-9:R2$$$V2.0), the “2-Selectivity: fold potency” value at HDAC2 [2] was determined as 0.41 fold. The IC50 on HDAC2 [1] (setting [5]) is 58 nM. As to `N=C(N)NCCC[C@@H]1NC(=O)[C@@H](CCCNC(=N)N)NC(=O)[C@H]2CCCN2C(=O)[C@@H](CC(N)=O)NC(=O)[C@H](Cc2ccc(O)cc2)NC(=O)[C@H](CCCCCS)NC(=O)[C@H](CCc2ccccc2)NC(=O)[C@@H](CCCCN)NC(=O)[C@H](CC(=O)O)NC1=O` [des3.4.0, SHA-Tyr-dAsn-dPro-dArg-Arg-Asp-dLys-C27] (HELM PEPTIDE1{D.[dK].[O=C([C@H](CCc1ccccc1)N[*:1])[*:2]].[O=C([C@H](CCCCCS)N[*:1])[*:2]].Y.[dN].[dP].[dR].R}$PEPTIDE1,PEPTIDE1,1:R1-9:R2$$$V2.0), the IC50 at HDAC2 [1] (setting [3]) is 10 to 100 nM.
